B1: OVA: ovalbumin labeled with IrDye 800CW-NHS ester infrared fluorescent dye (conjugate, UniProt P01012 2-386, looked up)
Ovalbumin: GSIGAASMEFCFDVFKELKVHHANENIFYCPIAIMSALAMVYLGAKDSTRTQINKVVRFDKLPGFGDSIEAQCGTSVNVHSSLRDILNQITKPNDVYSFSLASRLYAEERYPILPEYLQCVKELYRGGLEPINFQTAADQARELINSWVESQTNGIIRNVLQPSSVDSQTAMVLVNAIVFKGLWEKAFKDEDTQAMPFRVTEQESKPVQMMYQIGLFRVASMASEKMKILELPFASGTMSMLVLLPDEVSGLEQLESIINFEKLTEWTSSNVMEERKIKVYLPRMKMEEKYNLTSVLMAMGITDVFSSSANLSGISSAESLKISQAVHAAHAEINEAGREVVGSAEAGVDAASVSEEFRADHPFLFCIKHIATNAVLFFGRCVSP
modifications: IRDye 800CW label
notes: ovalbumin labeled with IrDye 800CW-NHS ester infrared fluorescent dye

Columns and labels:
Mice immunized with KLH = test: Nerve block: antigen signal in sciatic lymph node after bupivacaine; assay type: in vivo; conditions: 25 μl bupivacaine 0.375% at sciatic and femoral nerves before KLH-800CW in hind paw, imaged after one hour, mean±SEM, saline control 31.45±3.759, p<0.05
Protocol: In situ Antigen Imaging. 20 μl of 100 μg/ml labeled antigen was injected subcutaneously into the dorsum of the hind paw with an insulin syringe. After the predetermined time, the animal was euthanized using carbon dioxide, the skin over the area of interest was removed, and the animal was placed in a supine position in an Odyssey infrared imager. To image lymph node antigen content, sciatic and popliteal lymph nodes were surgically removed and placed into black, clear-bottomed 96-well plates filled with T-per (Thermo Scientific). These plates were imaged on the Odyssey imager. Immunization. Unlabeled antigen (100 μg) and 50% Imject alum (Thermo Scientific) in 200 μl 0.9% saline was injected intraperitoneally. Two weeks later, animals were injected again with the same solution as a booster. Two weeks after the booster injection, animals were used for experiments. Control animals received injections of 50% alum in saline. Nerve Block. Mice were immunized with 100 μg antigen and 50% Imject alum in 200 μl saline injected intraperitoneally twice, two weeks apart. Two weeks after the second injections, 25 μl bupivacaine (0.375%, APP Pharmaceuticals) or 0.9% saline was injected at the sciatic nerve and the femoral nerve of the hind leg. 20 minutes after the initial injection, animals were injected with labeled antigen in the dorsum of the hind paw. […]

Naïve Balb/c mice = test: Passive immunization: labeled antigen accumulation in sciatic lymph nodes; assay type: in vivo; conditions: naïve mice given rabbit polyclonal anti-OVA antibodies i.p.; 24 hours later 800CW-labeled antigen s.c. in dorsum of hind paw; imaged after one hour; mean±SEM
Protocol: In situ Antigen Imaging. 20 μl of 100 μg/ml labeled antigen was injected subcutaneously into the dorsum of the hind paw with an insulin syringe. After the predetermined time, the animal was euthanized using carbon dioxide, the skin over the area of interest was removed, and the animal was placed in a supine position in an Odyssey infrared imager. To image lymph node antigen content, sciatic and popliteal lymph nodes were surgically removed and placed into black, clear-bottomed 96-well plates filled with T-per (Thermo Scientific). These plates were imaged on the Odyssey imager.
Passive Immunization. Naïve Balb/c mice were injected intraperitoneally with 100 μg rabbit polyclonal anti-ovalbumin antibody (Millipore). After 24 hours, mice were injected with OVA-800CW or KLH-800CW subcutaneously in the dorsum of the hind paw. After one hour, mice were euthanized and imaged.

| Molecule | antigen signal in the sciatic lymph node (KLH-800CW fluorescence) (Mice immunized with KLH) | accumulation of labeled antigen in the sciatic lymph nodes (fluorescence signal) (Naïve Balb/c mice) |
| --- | --- | --- |
| CCCCN1CCCCC1C(=O)Nc1c(C)cccc1C (centres unmarked) [bupivacaine] | 45.65±5.350 |  |
| B1 |  | 6.483±1.461 |
